IC50 data for eleven compounds are collected here from patent US20210253575A1, “PYRROLIDINE AMINE COMPOUNDS FOR THE TREATMENT OF AUTOIMMUNE DISEASE” (Hoffmann-La Roche Inc., priority 2018, published 2021).

SMILES strings stand for the structures.

The target in this experiment is T1, human TLR7 (Homo sapiens, UniProt Q9NYK1).
T1 sequence (Q9NYK1 27-1049): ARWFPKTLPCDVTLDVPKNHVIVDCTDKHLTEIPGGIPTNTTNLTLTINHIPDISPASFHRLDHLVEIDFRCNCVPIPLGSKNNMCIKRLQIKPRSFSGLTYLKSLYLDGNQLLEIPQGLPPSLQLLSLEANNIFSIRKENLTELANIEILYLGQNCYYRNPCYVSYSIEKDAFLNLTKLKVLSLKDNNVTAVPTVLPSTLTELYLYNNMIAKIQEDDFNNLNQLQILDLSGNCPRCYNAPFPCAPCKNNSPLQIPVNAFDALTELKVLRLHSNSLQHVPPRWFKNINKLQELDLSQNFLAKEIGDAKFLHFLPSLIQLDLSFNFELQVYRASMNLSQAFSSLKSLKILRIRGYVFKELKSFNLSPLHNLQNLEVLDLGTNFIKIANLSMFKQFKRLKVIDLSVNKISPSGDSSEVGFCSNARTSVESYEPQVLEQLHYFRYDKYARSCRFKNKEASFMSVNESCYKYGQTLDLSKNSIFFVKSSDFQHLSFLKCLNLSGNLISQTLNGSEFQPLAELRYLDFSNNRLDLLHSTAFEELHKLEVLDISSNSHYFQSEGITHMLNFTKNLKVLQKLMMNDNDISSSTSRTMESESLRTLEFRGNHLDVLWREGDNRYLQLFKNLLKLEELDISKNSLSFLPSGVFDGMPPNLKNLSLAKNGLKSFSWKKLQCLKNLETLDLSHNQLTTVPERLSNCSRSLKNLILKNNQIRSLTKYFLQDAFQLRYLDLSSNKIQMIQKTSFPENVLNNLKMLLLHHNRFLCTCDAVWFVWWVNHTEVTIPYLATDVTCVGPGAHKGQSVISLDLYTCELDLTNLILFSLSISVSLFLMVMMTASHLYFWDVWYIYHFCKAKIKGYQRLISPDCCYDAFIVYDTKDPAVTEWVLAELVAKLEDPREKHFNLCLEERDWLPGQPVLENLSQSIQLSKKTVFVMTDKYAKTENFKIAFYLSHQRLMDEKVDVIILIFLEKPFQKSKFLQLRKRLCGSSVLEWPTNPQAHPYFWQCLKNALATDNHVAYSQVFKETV
Put plainly: HEK293-Blue-hTLR-7 cells assay (SEAP reporter, R848 stimulation). The class given is cell-based. As to conditions: HEK293-Blue-hTLR7 cells, R848 ligand, 20 hrs incubation. A digest of the protocol:
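Antagonism measured in stable HEK293-Blue-hTLR7 cells carrying an NF-κB/AP-1-driven SEAP reporter, stimulated with R848 (10 µL of 20 µM stock) with serially diluted compound, 1% DMSO, 20 h at 37 °C. Supernatant SEAP read with QUANTI-Blue after 2 h at 37 °C, absorbance 620–655 nm.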
`C[C@H]1CN(C[C@H]2CN(c3ccc(C#N)c4nccnc34)C[C@@H]2C(F)(F)F)CC[C@H]1N` [Example 72, 8-[(3S,4R)-3-[[(3S,4R)-4-amino-3-methyl-1-piperidyl]methyl]-4-(trifluoromethyl)pyrrolidin-1-yl]quinoxaline-5-carbonitrile] gave an IC50 of 0.013 µM. In other words, the double-digit nanomolar range. Consider `N#Cc1ccc(N2C[C@H](CN3CC4CCC(C3)C4N)[C@@H](C(F)(F)F)C2)c2nccnc12` (stereo partly drawn) [Example 73, 8-[(3S,4R)-3-[(8-amino-3-azabicyclo[3.2.1]octan-3-yl)methyl]-4-(trifluoromethyl)pyrrolidin-1-yl]quinoxaline-5-carbonitrile], for which half-maximal inhibition (IC50) required 0.02 µM. Under `N#Cc1ccc(N2C[C@H](CN3CCC(CN)CC3)[C@@H](C(F)(F)F)C2)c2nccnc12` [Example 74, 8-[(3S,4R)-3-[[4-(aminomethyl)-1-piperidyl]methyl]-4-(trifluoromethyl)pyrrolidin-1-yl]quinoxaline-5-carbonitrile] stands 0.028 µM. In turn, `CC1(CN)CCCN(C[C@H]2CN(c3ccc(C#N)c4nccnc34)C[C@@H]2C(F)(F)F)C1` (stereo partly drawn) [Example 75, 8-[(3S,4R)-3-[[3-(aminomethyl)-3-methyl-1-piperidyl]methyl]-4-(trifluoromethyl)pyrrolidin-1-yl]quinoxaline-5-carbonitrile] had an IC50 of 0.026 µM. The IC50 values of the last two compounds are within 1.5-fold of each other.

In turn, `N#Cc1ccc(N2C[C@H](CN3CC4CNCC4C3)[C@@H](C(F)(F)F)C2)c2nccnc12` (stereo partly drawn) [Example 76, 8-[(3S,4R)-3-(2,3,3a,4,6,6a-hexahydro-1H-pyrrolo[3,4-c]pyrrol-5-ylmethyl)-4-(trifluoromethyl)pyrrolidin-1-yl]quinoxaline-5-carbonitrile] registered an IC50 of 0.021 µM. Under `N#Cc1ccc(N2C[C@H](CN3CC4CCC3CN4)[C@@H](C(F)(F)F)C2)c2nccnc12` (stereo partly drawn) [Example 77, 8-[(3S,4R)-3-(2,5-diazabicyclo[2.2.2]octan-2-ylmethyl)-4-(trifluoromethyl)pyrrolidin-1-yl]quinoxaline-5-carbonitrile] stands 0.013 µM; under `N#Cc1ccc(N2C[C@H](CN3CCCC(F)(CN)C3)[C@@H](C(F)(F)F)C2)c2nccnc12` (stereo partly drawn) [Example 78, 8-[(3S,4R)-3-[[3-(aminomethyl)-3-fluoro-1-piperidyl]methyl]-4-(trifluoromethyl)pyrrolidin-1-yl]quinoxaline-5-carbonitrile], 0.032 µM. Compound `N#Cc1ccc(N2C[C@H](CN3CCC(CCN)CC3)[C@@H](C(F)(F)F)C2)c2nccnc12` [Example 79, 8-[(3S,4R)-3-[[4-(2-aminoethyl)-1-piperidyl]methyl]-4-(trifluoromethyl)pyrrolidin-1-yl]quinoxaline-5-carbonitrile] yielded an IC50 of 0.037 µM.

In the case of `CN(C)C1CCN(C[C@H]2CN(c3ccc(C#N)c4nccnc34)C[C@@H]2C(F)(F)F)CC1` [Example 80, 8-[(3S,4R)-3-[[4-(dimethylamino)-1-piperidyl]methyl]-4-(trifluoromethyl)pyrrolidin-1-yl]quinoxaline-5-carbonitrile], 0.014 µM corresponded to half-maximal inhibition (IC50).

In the case of `CNCC1CCN(C[C@H]2CN(c3ccc(C#N)c4nccnc34)C[C@@H]2C(F)(F)F)CC1` [Example 81, 8-[(3S,4R)-3-[[4-(methylaminomethyl)-1-piperidyl]methyl]-4-(trifluoromethyl)pyrrolidin-1-yl]quinoxaline-5-carbonitrile], the IC50 amounted to 0.032 µM. The figure for `CN(C)C[C@@H]1CCN(C[C@H]2CN(c3ccc(C#N)c4nccnc34)C[C@@H]2C(F)(F)F)C1` [Example 82, 8-[(3S,4R)-3-[[(3S)-3-[(dimethylamino)methyl]pyrrolidin-1-yl]methyl]-4-(trifluoromethyl)pyrrolidin-1-yl]quinoxaline-5-carbonitrile] is 0.106 µM.
